# According to ChEMBL document CHEMBL1201862, “PubChem BioAssay data set” (2004):
# Calls of active or inactive are those of the source.
# Legend:
# cells [1] = test: cells
# [2] = inhibitors of intracellular T. cruzi replication, confirmation, NIH3T3 host cells, beta-gal luminescence (AID 2044); format: functional, cell-based;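 also: intracellular parasites grown in NIH/3T3 mouse fibroblasts as host cells; luminescent beta-galactosidase reporter signal from transgenic T. cruzi replicating inside host cells; inhibitors lower the luminescence signal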
# [3] = cytotoxicity toward NIH3T3 fibroblasts, dose response, counter-screen, cell-based, ATP luminescence, mouse fibroblasts (AID 2010); format: functional;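 also: cells exposed to compound for about 90 hours before reading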
# cells [4] = format: functional, cell-based
# cells [5] = format: functional, cell-based; remark: listed apart in the source
# [6] = biological target: DNA dC->dU-editing enzyme APOBEC-3A (Homo sapiens, UniProt P31941); test: APOBEC3A DNA deaminase inhibitors, dose response, biochemical (AID 504722); format: functional
# [7] = biological target: DNA dC->dU-editing enzyme APOBEC-3G (Homo sapiens, UniProt Q9HC16); test: Dose Response confirmation of small molecule APOBEC3G DNA Deaminase Inhibitors via a fluorescence-based single-stranded DNA deaminase assay. [Related pubchem assays (depositor defined):AID493012, AID493028]; format: functional
# [8] = Vero E6 cell cytotoxicity, dose response, cytotoxicity control for non-replicating M. tuberculosis project, secondary assay (AID 492998); format: functional, VeroE6; conditions: Vero C1008
# [9] = HepG2 cell cytotoxicity, dose response, cytotoxicity control for non-replicating M. tuberculosis project (AID 489018); format: functional; conditions: Mycobacterium tuberculosis
# [10] = THP-1 cell cytotoxicity, dose response, cytotoxicity control for non-replicating M. tuberculosis project (AID 489025); format: functional
# cells [11] = format: functional
# [12] = biological target: T1, Heat shock factor protein 1 (Mus musculus, UniProt P38532); test: HSF1 potentiators in luciferase reporter cells, confirmation, cell-based, NIH3T3, luminescence, dose retest (AID 435004); format: functional;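 also: stress induced by proteasome inhibitor MG132 added 30 min after compound; luciferase reporter driven by HSF1 response element in NIH3T3 cells; actives raise luminescence as potentiators of the MG132 stress response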
# T1 sequence (P38532 whole entry): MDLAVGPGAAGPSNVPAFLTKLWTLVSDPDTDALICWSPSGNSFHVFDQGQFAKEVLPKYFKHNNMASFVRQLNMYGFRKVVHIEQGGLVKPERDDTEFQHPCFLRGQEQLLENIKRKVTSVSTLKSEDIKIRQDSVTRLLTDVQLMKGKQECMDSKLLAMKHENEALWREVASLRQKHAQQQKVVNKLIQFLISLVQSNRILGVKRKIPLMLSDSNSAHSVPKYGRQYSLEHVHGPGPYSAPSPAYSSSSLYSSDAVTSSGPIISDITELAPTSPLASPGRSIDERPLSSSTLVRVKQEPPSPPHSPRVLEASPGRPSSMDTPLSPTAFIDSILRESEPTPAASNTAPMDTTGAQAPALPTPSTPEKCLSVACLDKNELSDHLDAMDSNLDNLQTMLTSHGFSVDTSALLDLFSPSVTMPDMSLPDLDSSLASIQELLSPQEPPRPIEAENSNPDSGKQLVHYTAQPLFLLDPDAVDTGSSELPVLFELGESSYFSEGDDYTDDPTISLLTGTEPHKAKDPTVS
# [13] = biological target: Eukaryotic translation initiation factor 4E (Mus musculus, UniProt P63073); test: eIF4E–eIF4G protein interaction inhibitors, dose response, biochemical, TR-FRET (AID 855); format: functional;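 also: potency for disrupting eIF4E binding to eIF4GI seen as loss of FRET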
# cells [14] = test: cells; remark: listed apart in the source
# [15] = HEp-2 cell cytotoxicity, dose response, cytotoxicity control for RSV inhibitor project, HTS (AID 2410); format: functional; conditions: human respiratory syncytial virus
# CAAX prenyl protease 2 = biological target: T2, CAAX prenyl protease 2 (Saccharomyces cerevisiae S288c, UniProt Q03530); format: biochemical
# T2 sequence (Q03530 whole entry): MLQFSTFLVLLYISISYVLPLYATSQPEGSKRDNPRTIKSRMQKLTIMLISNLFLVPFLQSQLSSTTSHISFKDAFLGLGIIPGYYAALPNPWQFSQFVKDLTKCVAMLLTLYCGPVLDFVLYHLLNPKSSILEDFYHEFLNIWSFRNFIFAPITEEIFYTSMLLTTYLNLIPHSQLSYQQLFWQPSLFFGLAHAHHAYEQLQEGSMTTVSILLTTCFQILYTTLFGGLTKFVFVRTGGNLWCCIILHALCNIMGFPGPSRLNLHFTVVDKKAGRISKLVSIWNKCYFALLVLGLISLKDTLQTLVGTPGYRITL
# [16] = off-target signal loss in HeLa-CEM21 co-culture – HeLa F-luc CTL cells, cherry-picked, counter-screen for HIV-1 Env fusion inhibitor project, dose response (AID 652040); format: functional, cell-based;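 also: potency for signal decrease marking cytotoxic or nonspecific inhibition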
# [17] = ZM109 Env clade C HIV-1 fusion inhibitors, dose response, HeLa effector, CEM target cells, luciferase, cherry-pick (AID 652058); format: functional, cell-based
# [18] = C. albicans growth with fluconazole, confirmation, fluorescence, retest (AID 2467); format: functional, cell-based
# [19] = inhibitors of HIV Env-driven cell fusion, dose response, cherry-pick (AID 652057); format: functional, cell-based
# [20] = inhibitors of clade B AD8 Env fusion, dose response, cell-based, cherry-pick (AID 652062); format: functional;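 also: luciferase signal from cell-cell fusion driven by HIV-1 clade B AD8 Env; potency is for inhibitors of fusion seen as a drop in luminescence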
# [21] = NIH-3T3 fibroblast cytotoxicity, dose response, cytotoxicity control, cell-based, fluorescence, Alamar Blue, secondary assay (AID 2327); format: functional;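 also: NIH-3T3 mouse fibroblasts cultured with fluconazole at 8 µg/mL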
# [22] = biological target: T3, Rac GTPase-activating protein 1 (Homo sapiens, UniProt Q9H0H5); test: MgcRacGAP GTPase-activating activity inhibitors, confirmation, biochemical, ADP Hunter fluorescence, primary and confirmatory (AID 624330); format: functional
# T3 sequence (Q9H0H5 whole entry): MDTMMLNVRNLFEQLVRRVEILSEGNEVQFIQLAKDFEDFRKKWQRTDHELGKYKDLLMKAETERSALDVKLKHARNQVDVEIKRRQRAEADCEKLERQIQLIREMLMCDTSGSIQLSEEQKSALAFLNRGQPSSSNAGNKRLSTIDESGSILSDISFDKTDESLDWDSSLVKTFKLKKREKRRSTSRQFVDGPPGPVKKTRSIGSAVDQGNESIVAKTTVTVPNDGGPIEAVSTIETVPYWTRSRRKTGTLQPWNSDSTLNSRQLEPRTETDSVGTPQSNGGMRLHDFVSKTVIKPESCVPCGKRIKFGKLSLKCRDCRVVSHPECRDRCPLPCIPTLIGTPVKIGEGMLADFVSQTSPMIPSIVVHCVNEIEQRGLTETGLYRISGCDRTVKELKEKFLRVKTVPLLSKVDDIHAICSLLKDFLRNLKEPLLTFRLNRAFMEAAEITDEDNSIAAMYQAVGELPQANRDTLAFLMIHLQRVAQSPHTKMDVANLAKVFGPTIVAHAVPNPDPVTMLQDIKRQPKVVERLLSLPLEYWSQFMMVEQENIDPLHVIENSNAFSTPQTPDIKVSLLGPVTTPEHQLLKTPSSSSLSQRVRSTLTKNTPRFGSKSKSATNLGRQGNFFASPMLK
# DNA dC->dU-editing enzyme APOBEC-3G, sequence (Q9HC16 whole entry): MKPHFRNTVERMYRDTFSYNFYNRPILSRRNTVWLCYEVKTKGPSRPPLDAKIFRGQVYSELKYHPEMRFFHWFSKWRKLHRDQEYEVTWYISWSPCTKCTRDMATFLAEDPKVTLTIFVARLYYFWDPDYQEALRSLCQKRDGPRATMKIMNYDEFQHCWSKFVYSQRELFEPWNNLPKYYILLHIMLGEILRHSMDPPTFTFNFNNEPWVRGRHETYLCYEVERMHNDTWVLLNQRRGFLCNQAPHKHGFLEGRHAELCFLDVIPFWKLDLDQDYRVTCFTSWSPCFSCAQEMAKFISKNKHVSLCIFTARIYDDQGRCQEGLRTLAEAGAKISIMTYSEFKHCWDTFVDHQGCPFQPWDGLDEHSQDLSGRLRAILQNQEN
# DNA dC->dU-editing enzyme APOBEC-3A, sequence (P31941 whole entry): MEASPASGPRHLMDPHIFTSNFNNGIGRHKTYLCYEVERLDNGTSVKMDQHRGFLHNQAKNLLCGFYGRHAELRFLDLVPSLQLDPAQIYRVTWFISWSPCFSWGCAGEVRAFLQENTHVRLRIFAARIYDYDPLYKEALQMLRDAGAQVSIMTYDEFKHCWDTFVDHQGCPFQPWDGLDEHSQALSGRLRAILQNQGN
# Eukaryotic translation initiation factor 4E, sequence (P63073 whole entry): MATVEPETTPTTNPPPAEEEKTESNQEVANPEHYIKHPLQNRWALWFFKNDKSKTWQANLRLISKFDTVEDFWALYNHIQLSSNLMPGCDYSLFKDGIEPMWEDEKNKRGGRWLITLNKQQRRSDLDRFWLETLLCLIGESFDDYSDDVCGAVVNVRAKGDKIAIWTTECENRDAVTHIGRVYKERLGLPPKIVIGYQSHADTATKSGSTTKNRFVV
smiles,measurement,setting,value
CCCCN(C)Cc1c(C)nc2c(Cl)cccc2c1O,EC50,cells [1],0.074 µM (active)
same,EC50,[2],< 0.1 µM (active)
same,EC50,[3],> 60 µM (not active)
Cc1ccc(-n2nc3c(=O)n(CC(=O)NCCc4ccccc4C)nc(C)c3c2C)cc1,EC50,cells [4],> 29.9 µM (inactive)
same,IC50,cells [5],> 29.9 µM (inactive)
CC(C)Cc1ccc(CN2CCCC(NC(=O)c3nn(C)c(=O)c4ccccc34)C2)cc1 (configuration not stated),EC50,cells [1],0.021 µM (active)
same,EC50,[2],< 0.1 µM (active)
same,EC50,[3],8.66 µM (active)
Nn1c(Cc2cccc3ccccc23)n[nH]c1=S,IC50,[6],> 100 µM (inactive)
same,IC50,[7],2.94 µM (active)
C/C(=N\NC(=O)COc1cccc(C)c1)c1ccc2ccccc2c1O,CC50,[8],16.5 µM (active)
same,CC50,[9],19.1 µM (active)
same,CC50,[10],8.95 µM (active)
COc1ccccc1-c1nnc(NC(=O)c2ccc3ncsc3c2)o1,IC50,cells [11],7.75 µM (active)
same,CC50,[8],10.3 µM (active)
same,CC50,[9],> 20 µM (active)
same,CC50,[10],> 40 µM (active)
C=CCSc1nc(-c2ccc(OC)cc2)c(C#N)c(=O)n1CC=C,EC50,[12],12.7 µM (active)
same,IC50,[13],50 µM (inactive)
CCOc1ccc(N2C(=O)C(CC(=O)Nc3ccccc3)N(Cc3ccccn3)C2=S)cc1 (configuration not stated),IC50,cells [14],5 µM (active)
same,CC50,[15],33.6 µM (active)
O=C(Nc1ccc(Cl)c([N+](=O)[O-])c1)C(Sc1ccccc1)c1ccccc1 (configuration not stated),EC50,[2],1.45 µM (active)
same,EC50,[3],> 60 µM (inconclusive)
same,AC50,CAAX prenyl protease 2,7.77 µM (active)
CCn1c(SC)nnc1-c1sc2cc(Cl)ccc2c1Cl,IC50,cells [14],9.26 µM (active)
same,CC50,[15],11.2 µM (active)
CC1CCc2c(sc3ncnc(N4CCOCC4)c23)C1 (configuration not stated),AC50,[16],20.8 µM (active)
same,AC50,[17],0.858 µM (active)
same,EC50,[18],> 38 µM (not active)
same,AC50,[19],22.5 µM (active)
same,AC50,[20],4.54 µM (active)
same,EC50,[21],> 160 µM (inactive)
Cc1cc(-c2nnc(S)n2/N=C/c2ccccc2[N+](=O)[O-])[nH]n1,IC50,[6],> 100 µM (inactive)
same,IC50,[7],6.21 µM (active)
same,IC50,[22],107 µM (active)
CCc1nnc(S)n1/N=C/c1ccc(N(CC)CC)cc1,IC50,[6],> 100 µM (inactive)
same,IC50,[7],6.69 µM (active)
